# Measurements as given in PubChem BioAssay AID1259407 (Chemical Carcinogenesis Research Information System (CCRIS), 2018).
# The source made the active and inactive calls. The rule behind the calls is not given here.
# Test system: CCRIS mutagenicity, Ames/micronucleus/aberration tests
# Experiment: CCRIS mutagenicity studies
# [1] = Test System: AMES SALMONELLA TYPHIMURIUM, Strain/Indicator: TA100, Metabolic Activation: RAT, LIVER, S-9, PHENOBARBITAL AND 5,6-BENZOFLAVONE, Method: PREINCUBATION
# [2] = Test System: AMES SALMONELLA TYPHIMURIUM, Strain/Indicator: TA100, Metabolic Activation: NONE, Method: STANDARD PLATE
structure (smiles),measurement,setting,value
Cn1c(N)nc2nc3ncccc3cc21,mutagenic call,"Test System: AMES SALMONELLA TYPHIMURIUM, Strain/Indicator: TA98, Metabolic Activation: RAT, LIVER, S-9, AROCLOR 1254A, Method: STANDARD PLATE",inactive; negative
same,mutagenic call,"Test System: AMES SALMONELLA TYPHIMURIUM, Strain/Indicator: YG1024, Metabolic Activation: RAT, LIVER, S-9, AROCLOR 1254A, Method: STANDARD PLATE",active; positive
CN(C)CCN(C)N=O,mutagenic call,"Test System: AMES SALMONELLA TYPHIMURIUM, Strain/Indicator: TA1535, Metabolic Activation: HAMSTER, LIVER, S-9, Method: STANDARD PLATE",active; positive
same,mutagenic call,"Test System: AMES SALMONELLA TYPHIMURIUM, Strain/Indicator: TA1535, Metabolic Activation: RAT, LIVER, S-9, Method: STANDARD PLATE",inactive; negative
O=C1C=C(Nc2ccccc2)C(=O)c2ccccc21,mutagenic call,"Test System: AMES SALMONELLA TYPHIMURIUM, Strain/Indicator: TA97, Metabolic Activation: NONE, Method: PREINCUBATION",inactive; negative
same,mutagenic call,"Test System: AMES SALMONELLA TYPHIMURIUM, Strain/Indicator: TA97, Metabolic Activation: RAT, LIVER, S-9, PHENOBARBITAL AND 5,6-BENZOFLAVONE, Method: PREINCUBATION",active; positive
same,mutagenic call,"Test System: AMES SALMONELLA TYPHIMURIUM, Strain/Indicator: TA98, Metabolic Activation: NONE, Method: PREINCUBATION",inactive; negative
same,mutagenic call,"Test System: AMES SALMONELLA TYPHIMURIUM, Strain/Indicator: TA98, Metabolic Activation: RAT, LIVER, S-9, PHENOBARBITAL AND 5,6-BENZOFLAVONE, Method: PREINCUBATION",active; positive
same,mutagenic call,"Test System: AMES SALMONELLA TYPHIMURIUM, Strain/Indicator: TA100, Metabolic Activation: NONE, Method: PREINCUBATION",inactive; negative
same,mutagenic call,[1],inactive; negative
same,mutagenic call,"Test System: AMES SALMONELLA TYPHIMURIUM, Strain/Indicator: TA102, Metabolic Activation: NONE, Method: PREINCUBATION",inactive; negative
same,mutagenic call,"Test System: AMES SALMONELLA TYPHIMURIUM, Strain/Indicator: TA102, Metabolic Activation: RAT, LIVER, S-9, PHENOBARBITAL AND 5,6-BENZOFLAVONE, Method: PREINCUBATION",inactive; negative
same,mutagenic call,"Test System: AMES SALMONELLA TYPHIMURIUM, Strain/Indicator: TA104, Metabolic Activation: NONE, Method: PREINCUBATION",inactive; negative
same,mutagenic call,"Test System: AMES SALMONELLA TYPHIMURIUM, Strain/Indicator: TA104, Metabolic Activation: RAT, LIVER, S-9, PHENOBARBITAL AND 5,6-BENZOFLAVONE, Method: PREINCUBATION",active; positive
same,mutagenic call,"Test System: AMES SALMONELLA TYPHIMURIUM, Strain/Indicator: TA1535, Metabolic Activation: NONE, Method: PREINCUBATION",inactive; negative
same,mutagenic call,"Test System: AMES SALMONELLA TYPHIMURIUM, Strain/Indicator: TA1535, Metabolic Activation: RAT, LIVER, S-9, PHENOBARBITAL AND 5,6-BENZOFLAVONE, Method: PREINCUBATION",inactive; negative
same,mutagenic call,"Test System: AMES SALMONELLA TYPHIMURIUM, Strain/Indicator: TA1537, Metabolic Activation: NONE, Method: PREINCUBATION",inactive; negative
same,mutagenic call,"Test System: AMES SALMONELLA TYPHIMURIUM, Strain/Indicator: TA1537, Metabolic Activation: RAT, LIVER, S-9, PHENOBARBITAL AND 5,6-BENZOFLAVONE, Method: PREINCUBATION",active; positive
same,mutagenic call,"Test System: AMES SALMONELLA TYPHIMURIUM, Strain/Indicator: TA1538, Metabolic Activation: NONE, Method: PREINCUBATION",inactive; negative
same,mutagenic call,"Test System: AMES SALMONELLA TYPHIMURIUM, Strain/Indicator: TA1538, Metabolic Activation: RAT, LIVER, S-9, PHENOBARBITAL AND 5,6-BENZOFLAVONE, Method: PREINCUBATION",active; positive
same,mutagenic call,"Test System: AMES SALMONELLA TYPHIMURIUM, Strain/Indicator: TA2637, Metabolic Activation: NONE, Method: PREINCUBATION",active; positive
same,mutagenic call,"Test System: AMES SALMONELLA TYPHIMURIUM, Strain/Indicator: TA2637, Metabolic Activation: RAT, LIVER, S-9, PHENOBARBITAL AND 5,6-BENZOFLAVONE, Method: PREINCUBATION",active; positive
CCCN(CCCO)N=O,mutagenic call,"Test System: CHINESE HAMSTER V-79, Strain/Indicator: V-79/OUABAIN, Metabolic Activation: HAMSTER, HEPATOCYTES, Method: CELL-MEDIATED",inactive; negative
CCC/C=C/C(=O)O[C@@H]1C(C)(C)C[C@@H]2C34CC3(C(C=O)=C[C@]12O)[C@@H](O)OC4=O (stereo partly drawn),mutagenic call,"Test System: AMES SALMONELLA TYPHIMURIUM, Strain/Indicator: TA98, Metabolic Activation: NONE, Method: SPOT TEST",active; positive
same,mutagenic call,"Test System: AMES SALMONELLA TYPHIMURIUM, Strain/Indicator: TA98, Metabolic Activation: NONE, Method: STANDARD PLATE",active; positive
same,mutagenic call,"Test System: AMES SALMONELLA TYPHIMURIUM, Strain/Indicator: TA100, Metabolic Activation: NONE, Method: SPOT TEST",inactive; negative
same,mutagenic call,[2],active; positive
same,mutagenic call,"Test System: AMES SALMONELLA TYPHIMURIUM, Strain/Indicator: TA1535, Metabolic Activation: NONE, Method: SPOT TEST",inactive; negative
same,mutagenic call,"Test System: AMES SALMONELLA TYPHIMURIUM, Strain/Indicator: TA1538, Metabolic Activation: NONE, Method: SPOT TEST",inactive; negative
same,mutagenic call,"Test System: AMES SALMONELLA TYPHIMURIUM, Strain/Indicator: TA2637, Metabolic Activation: NONE, Method: STANDARD PLATE",active; positive
O=C(O)/C=C/C(=O)CC(=O)CC(=O)O,mutagenic call,"Test System: CHINESE HAMSTER V-79, Strain/Indicator: V-79 (HGPRT)/6-THIOGUANINE, Metabolic Activation: NONE",active; positive
CC(=O)OCc1cc(C(C)=O)ccc1OC(C)=O,mutagenic call,"Test System: AMES SALMONELLA TYPHIMURIUM, Strain/Indicator: TA100(PKM101), Metabolic Activation: NONE, Method: STANDARD PLATE",active; positive
same,mutagenic call,[2],active; positive
same,mutagenic call,"Test System: AMES SALMONELLA TYPHIMURIUM, Strain/Indicator: TA1535, Metabolic Activation: NONE, Method: STANDARD PLATE",inactive; negative
same,mutagenic call,"Test System: AMES SALMONELLA TYPHIMURIUM, Strain/Indicator: TA1538, Metabolic Activation: NONE, Method: STANDARD PLATE",inactive; negative
same,mutagenic call,"Test System: E. COLI, Strain/Indicator: TK701(PKM101), Metabolic Activation: NONE, Method: STANDARD PLATE",active; positive
same,mutagenic call,"Test System: E. COLI, Strain/Indicator: TK701, Metabolic Activation: NONE, Method: STANDARD PLATE",active; positive
same,mutagenic call,"Test System: E. COLI, Strain/Indicator: TK702(PKM101), Metabolic Activation: NONE, Method: STANDARD PLATE",active; positive
same,mutagenic call,"Test System: E. COLI, Strain/Indicator: TK702, Metabolic Activation: NONE, Method: STANDARD PLATE",inactive; negative
NC(=O)N/N=C/c1ccco1,mutagenic call,"Test System: E. COLI, Strain/Indicator: WP2 UVRA, Metabolic Activation: NONE, Method: SPOT",active; positive
CCCCCN(CCCCC)N=O,mutagenic call,"Test System: AMES SALMONELLA TYPHIMURIUM, Strain/Indicator: TA100, Metabolic Activation: RAT, LIVER, S-9, KC500 OR PHENOBARBITAL, Method: LIQUID SUSPENSION",active; positive
same,mutagenic call,"Test System: AMES SALMONELLA TYPHIMURIUM, Strain/Indicator: TA1530, Metabolic Activation: RAT, LIVER, S-9, Method: STANDARD PLATE",active; positive
same,mutagenic call,"Test System: CHINESE HAMSTER V-79, Strain/Indicator: V-79/8-AZAGUANINE, Metabolic Activation: CELL-MEDIATED, Method: STANDARD PLATE",active; positive
CN(C)CCNC(=O)c1cccc2c(=O)c3ccccc3[nH]c12,mutagenic call,"Test System: AMES SALMONELLA TYPHIMURIUM, Strain/Indicator: TA1537, Metabolic Activation: NONE, Method: STANDARD PLATE",active; positive
Fc1cnc2cccc(F)c2c1,mutagenic call,[1],inactive; negative
Fc1ccc2c3c(cccc13)-c1c-2ccc2ccccc12,mutagenic call,"Test System: AMES SALMONELLA TYPHIMURIUM, Strain/Indicator: TA97A, Metabolic Activation: RAT, LIVER, S-9, AROCLOR 1254, Method: PREINCUBATION",active; positive
same,mutagenic call,"Test System: AMES SALMONELLA TYPHIMURIUM, Strain/Indicator: TA98, Metabolic Activation: RAT, LIVER, S-9, AROCLOR 1254, Method: PREINCUBATION",active; positive
same,mutagenic call,"Test System: AMES SALMONELLA TYPHIMURIUM, Strain/Indicator: TA100, Metabolic Activation: RAT, LIVER, S-9, AROCLOR 1254, Method: PREINCUBATION",active; positive
